Experimental findings from US5236957A, “N-phenylalkyl substituted α-amino carboxamide derivatives and process for their preparation” (Farmitalia Carlo Erba Srl, priority 1989, dated 1993) are described below.

Each structure is given as a SMILES string. pIC50: −log10 of the molar value. Read-outs that look alike come from different tables or passages of the source.

Test [1] relates to bicucculine-induced lethality in mice. The experiment in a line: Antagonism of bicucculine-induced lethality in mice. The test is classed as in vivo. Particulars: Mus musculus, po; drugs given orally 1 h before bicucculine (0.6 mg/kg, i.v.); protection of 50% of mice from lethality. How it is done: (§1) The activity on the CNS of the compounds of the invention was evaluated on the basis of pharmacological methods, such as, for example, the antagonism of convulsions and lethality induced by intravenous injection of bicucculine in mice (Antiepileptic Drug, D. M. Woodbury et al. eds., 2nd edition, Raven Press, New York, 1982), or the antagonism of convulsions induced in mice by subcutaneous injection of 3-mercaptopropionic acid (W. Loscher, Biochem. Pharmacol., 28; 1397-1407, 1979). Accordingly in following Tables 1 and 2, the doses which protect 50% of the mice (i.e. ED50) from lethality and tonic convulsions induced by bicucculine and 3-mercaptopropanoic acid, respectively, are given for a representative group of compounds according to the present invention.
Antagonism of bicucculine-induced lethality in mice.
Drugs were given orally 1 h before bicucculine (0.6 mg/kg, i.v.)

The subject of test [2] is 3-mercaptopropionic acid (MPA) induced tonic convulsions in mice. Briefly: Antagonism of 3-mercaptopropionic acid (MPA) induced tonic convulsions in mice. The test is classed as in vivo. Particulars: Mus musculus, po. Here is the method: as §1
Antagonism of 3-mercaptopropionic acid (MPA) induced
tonic convulsions in mice; drugs were given orally
1 h before MPA (60 mg/kg s.c.)

In test [3] the target is T1, MAO type B (Rattus norvegicus, UniProt P19643).
T1 construct: using rat liver mitochondria as the source of MAO; from tissue; host or cells: rat liver mitochondria
T1 sequence (P19643 1-520): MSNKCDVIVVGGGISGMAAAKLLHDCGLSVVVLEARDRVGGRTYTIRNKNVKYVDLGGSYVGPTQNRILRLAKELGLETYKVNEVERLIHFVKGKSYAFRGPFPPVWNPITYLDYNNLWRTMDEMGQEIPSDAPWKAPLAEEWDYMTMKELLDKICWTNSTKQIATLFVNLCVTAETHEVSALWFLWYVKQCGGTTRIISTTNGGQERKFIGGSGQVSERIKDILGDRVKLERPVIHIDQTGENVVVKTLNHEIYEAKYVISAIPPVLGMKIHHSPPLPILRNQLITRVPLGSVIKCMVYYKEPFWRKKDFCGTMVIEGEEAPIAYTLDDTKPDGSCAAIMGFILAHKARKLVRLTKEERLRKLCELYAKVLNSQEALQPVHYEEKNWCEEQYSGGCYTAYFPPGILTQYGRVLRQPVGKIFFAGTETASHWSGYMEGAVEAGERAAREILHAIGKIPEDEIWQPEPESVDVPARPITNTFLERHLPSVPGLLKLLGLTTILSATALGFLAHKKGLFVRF
The experiment in a line: Inhibition of MAO type B, rat liver mitochondria, 2-phenylethylamine as substrate. It counts as biochemical. Conditions: rat liver mitochondria as source of MAO.

Test [4] deals with serotonin (5-HT) and 5-hydroxy-indole-3-acetic acid (5-HIAA). The experiment in a line: Levels of 5-HT and 5-HIAA in frontal cortex of mice. It counts as in vivo. Conditions: 200 mg/kg p.o.
[5] abbreviates: drugs given orally 1 h before MPA (60 mg/kg s.c.), protection of 50% of mice from tonic convulsions, read-out: ED50.

By ED50 is commonly meant the midpoint of the dose-response relation. `C[C@H](NCc1ccc(NCc2ccccc2)cc1)C(N)=O` [FCE 26749, (S)-2-(4-benzylaminobenzyl)aminopropionamide] gave an ED50 in test [1] of 9 mg/kg.

`C[C@@H](NCc1ccc(OCc2cccc(Cl)c2)cc1)C(N)=O` [FCE 26312, (R)-2-[4-(3-chlorobenzyloxy)benzyl]aminopropionamide]: the ED50 in test [1] worked out at 50 mg/kg; in test [2] (setting [5]) it was 10 mg/kg.

For the molecule `C[C@H](NCc1ccc(OCc2ccccc2Cl)cc1)C(N)=O` [FCE 26700, (S)-2-[4-(2-chlorobenzyloxy)benzyl]aminopropionamide], in test [1], the 50% effect level (ED50) was put at a dose of 17 mg/kg.

`CNC(=O)[C@H](CO)NCc1ccc(OCc2cccc(F)c2)cc1` [FCE 26650, (S)-2-[4-(3-fluorobenzyloxy)benzyl]amino-3-hydroxy-N-methylpropionamide] displayed an ED50 in test [1] of 25 mg/kg.

In the case of `CNC(=O)[C@H](CO)NCc1ccc(OCc2ccccc2F)cc1` [FCE 26649], in test [1], the median effective dose (ED50) worked out at 12 mg/kg.

`C[C@H](NCc1ccc(Cc2ccccc2)cc1)C(N)=O` [FCE 26723, (S)-2-(4-benzylbenzyl)aminopropionamide] showed an ED50 in test [1] of 16 mg/kg.

As to `CCCC(CCC)C(=O)O` [Valproate, reference compound], the values for the ED50 in test [1] and in test [2] (1 h) were 401 mg/kg and 302 mg/kg, respectively.

As for `CNC(=O)[C@H](CO)NCc1ccc(OCc2ccccc2Cl)cc1` [FCE 26502, (S)-2-[4-(2-chlorobenzyloxy)benzyl]amino-3-hydroxy-N-methylpropionamide], the ED50 in test [1] amounted to 27 mg/kg; in test [2] (setting [5]), 16 mg/kg.

For `C[C@@H](C(N)=O)N(C)Cc1ccc(Cc2ccccc2)cc1` [FCE 26762, (S)-2-[N-(4-benzylbenzyl)-N-methyl]aminopropionamide], it took a dose of 54 mg/kg to reach the 50% effect level in test [1] (ED50).

With `CNC(=O)[C@H](CO)NCc1ccc(OCc2ccccc2)cc1` [FCE 26358, (S)-2-(4-benzyloxybenzyl)amino-3-hydroxy-N-methylpropionamide], the ED50 is 16 mg/kg in test [1] and 43 mg/kg in test [2] (setting [5]).

Take `C[C@H](NCc1ccc(OCc2ccccc2)cc1)C(N)=O` [FCE 26550, (S)-2-(4-benzyloxybenzyl)aminopropionamide]: the ED50 in test [1] came to 15 mg/kg; in test [2] (setting [5]), 13 mg/kg.

`CNC(=O)[C@H](CO)NCc1ccc(OCc2cccc(Cl)c2)cc1` [FCE 26359, (S)-2-[4-(3-chlorobenzyloxy)benzyl]amino-3-hydroxy-N-methylpropionamide]: in test [2] (setting [5]), the ED50 is 29 mg/kg.

One may read the pIC50 as the negative decadic logarithm of the IC50, by convention in mol/L. The low end stands for a high IC50, the high end for a low IC50. On to `NC(=O)CNCc1ccc(OCc2cccc(Cl)c2)cc1` [FCE 25989, 2-[4-(3-chlorobenzyloxy)benzyl]aminoacetamide], for which the ED50 in test [1] is 190 mg/kg. Also, in test [2] (setting [5]), the ED50 was determined as 28 mg/kg. The same molecule gave a negative logarithm of the IC50 (pIC50) in test [3] of 6.70. Further, in test [4], the “increase of 5-HIAA” value is given as 37% and the “increase of 5-HT” value was 48%.

`C[C@H](NCc1ccc(OCc2cccc(F)c2)cc1)C(N)=O` [FCE 26743, (S)-2-[4-(3-fluorobenzyloxy)benzyl]aminopropionamide] showed an ED50 in test [1] of 29 mg/kg.
